Laboratory results reported in patent publication US12358910B2, “Heteroaromatic compounds as Vanin inhibitors” (Boehringer Ingelheim International GmbH, priority 2018, dated 2025).

Assays:
Pantetheinase (vanin) = test: Human Whole Blood assay (vanin activity by pantothenic acid formation); format: cell-based; conditions: pantethine substrate, 5 min reaction at room temperature, geometric mean in case of multiple measurements, read-out: HWB IC50
Procedure: Human Whole Blood assay: Pantetheinase (vanin) converts panteheine into pantothenic acid and cysteamine. Accordingly, in the described protocol vanin activity is quantified by formation of pantothenic acid after pantetheine supplementation via pantethine. The assay is applicable to identify vanin inhibitors. Compound stocks are dissolved in DMSO at 10 mM. Further dilutions are performed in RPMI 1640 medium (Gibco, #A-10491-01) and final concentrations in the assay are 0.032 nM-500 nM.
Human blood is drawn into a blood bag (1% heparin, 50 I.E./mL). Blood is aliquoted into cavities of 96-deep-well plates at 290 μL and mixed with 10 μL compound solution or vehicle (30 sec at 1400 rpm on a shaker). Equilibration follows at room temperature, 250 rpm and for 30 min. The assay is started by adding 10 μL of substrate solution (2 μM pantethine in 1 mM DTT, 0.0025% Brij-35, 50 mM HEPES, pH7.5) to each well, except for some blank wells which receive […] substrate buffer (1 mM DTT, 0.0025% Brij-35, 50 mM HEPES, pH7.5) only. Samples are thoroughly shaken (30 sec, 1400 rpm) and reaction is allowed to take place at room temperature, 250 rpm and for 5 min. The reaction is stopped by addition of a vanin tool inhibitor in excess (BI-1 total conc. 10 μM). Centrifugation of the plate follows at 4° C., 665 G for 10 min. Then the blood plasma samples (100 μL) are transferred into another 96-deep-well plate and proteins are precipitated (5 min on ice) by adding 100 μL of ice cold precipitation solution (1 μM labelled pantothenic acid (di-β-alanine-13C6,15N2 calcium salt, Sigma, #705837) in acetonitrile).
Afterwards the plate is centrifuged (4° C., 3220 G, 10 min) and supernatants (50 μL) are collected into another 96-deep-well plate and mixed (10 sec, 1400 rpm) with 150 μL ice cold formic acid (0.1%, Carl Roth GmbH+Co.KG, #CP03.1). The formation of pantothenic acid is detected by RapidFire Mass Spectrometry. A TripleQuad 6500+(ABSciex, Germany) is equipped with an LC-1290 system, a RapidFire autosampler (Agilent, Germany) and a C18 cartridge Type C 12 μL (Agilent Cat #G9526-80000). Mobile phase A is consisting of 0.09% formic acid and 0.01% trifluoroacetic acid in water and mobile phase B of 0.09% formic acid and 0.01% trifluoroacetic acid in acetonitrile/methanol/water=47.5/47.5/5.

[1] = target: T1, FLAG-tagged Vanin-1 (AA 22-493, T26I) (Homo sapiens, UniProt O95497, T26I); test: Vanin-1 enzymatic assay (pantothenic acid formation, RapidFire mass spectrometry); format: biochemical; conditions: 0.1 nM FLAG-tagged Vanin-1, 3 μM D-pantethine, room temperature; geometric mean in case of multiple measurements; read-out: VNN-1 IC50
T1 construct: FLAG-tagged Vanin-1 (AA 22-493, T26I, produced internally); FLAG; made in house
T1 sequence (O95497 22-493 T26I): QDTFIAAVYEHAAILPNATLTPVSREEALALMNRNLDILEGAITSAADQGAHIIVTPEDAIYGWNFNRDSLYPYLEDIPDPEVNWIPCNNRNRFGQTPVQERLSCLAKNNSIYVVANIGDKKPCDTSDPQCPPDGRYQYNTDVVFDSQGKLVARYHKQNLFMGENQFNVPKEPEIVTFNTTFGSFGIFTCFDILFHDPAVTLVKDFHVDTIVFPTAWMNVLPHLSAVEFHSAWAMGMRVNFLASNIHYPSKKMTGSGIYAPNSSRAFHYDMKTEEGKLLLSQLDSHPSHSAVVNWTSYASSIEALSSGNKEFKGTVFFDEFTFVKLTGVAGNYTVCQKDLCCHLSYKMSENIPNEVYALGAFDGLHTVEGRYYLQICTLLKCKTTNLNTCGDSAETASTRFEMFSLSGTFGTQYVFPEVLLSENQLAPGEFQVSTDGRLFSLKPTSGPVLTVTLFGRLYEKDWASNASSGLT
Procedure: Description of Biological Properties Vanin-1 Enzymatic Assay:
The test compounds are dissolved in 100% DMSO at a concentration of 10 mM and in a first step diluted in DMSO to a concentration of 5 mM, followed by serial dilution steps in 100% DMSO. Dilution factor and number of dilution steps may vary according to needs. Typically 8 different concentrations by 1:5 dilutions are prepared, a further intermediate dilutions of the substances is carried out with assay buffer resulting in 1% final DMSO concentration in the assay.
0.1 nM of FLAG-tagged Vanin-1 (AA 22-493, T26I, produced internally) and test compounds are incubated at room temperature for 20 minutes in assay buffer (1 mM DTT, 0.0025% Brij-35, 50 mM HEPES, pH7.5). D-Pantethine (Sigma, Cat #P2125-5G) in assay buffer is added (final concentration 3 μM) and incubated for additional 30 minutes at room temperature. Total assay volume typically is 40 μl but might be adjusted according to needs. Reaction is stopped by adding equal volume of stop solution as the reaction mixture to reach 100 nM HD-pantothenic acid (as an internal standard) and 1% TFA. Assay plates are centrifuged for 2 minutes and the formation of pantothenic acid is detected by RapidFire Mass Spectrometry (mobile phase A: 0.1% formic acid and 0.01% trifluoroacetic acid in water; mobile phase B: 47.5% acetonitrile, 47.5% methanol, 0.1% formic acid and 0.01% trifluoroacetic acid in water) using a C18, 12 μL cartridge (Agilent Cat #G9205A).
The values given in Table I result from measurements of one or more samples. In case of multiple measurements the geometric mean values are given.

Structure (SMILES)	IC50 (Pantetheinase (vanin)) [nM]	IC50 [1] [nM]
CN(C(=O)C1CC1)[C@H]1CCN(C(=O)c2ccc(NCc3cnc4ccccn34)nc2)C1 [Example 1.16]	2.78	0.2
CC1(C#N)CCN(C(=O)c2ccc(NCc3ncn4ccccc34)nc2)C1 (stereo not shown) [Example 1.17]	10.4	0.83
CC1(C#N)CCN(C(=O)c2ccc(NCc3cnc4ccccn34)nc2)C1 (stereo not shown) [Example 1.18]	3.67	0.41
CC1(C#N)CCN(C(=O)c2ccc(NCc3ccnc4[nH]ccc34)nc2)C1 (stereo not shown) [Example 1.19]	3.78	0.3
CC(=O)N(C)[C@H]1CCN(C(=O)c2ccc(NCc3n[nH]c4ccc(Cl)cc34)nc2)C1 [Example 2.1, N-[1(3S)-1-(6-{1[(5-Chloro-1H-indazol-3-yl)methyl]amino}pyridine-3-carbonyl)pyrrolidin-3-yl]-N-methylacetamide]	5.03	0.23
CC(=O)N(C)[C@H]1CCN(C(=O)c2ccc(NCc3cnc4ccsc4c3)nc2)C1 [Example 2.4]	1.39	0.29
CC(=O)N(C)[C@H]1CCN(C(=O)c2ccc(NCc3csc4ccccc34)nc2)C1 [Example 3.1, N-[(3S)-1-(6-{1[(1-Benzothiophen-3-yl)methyl]amino}pyridine-3-carbonyl)pyrrolidin-3-yl]-N-methylacetamide]	7.21	0.41
CN(C(=O)C1CCC1)[C@H]1CCN(C(=O)c2ccc(NCc3cnc4ccccn34)nc2)C1 [Example 4.1, N-[(3S)-1-{6-[({Imidazo[1,2-a]pyridin-3-yl}methyl)amino]pyridine-3-carbonyl}pyrrolidin-3-yl]-N-methylcyclobutanecarboxamide]	1.63	0.1
CC(=O)N(C)[C@H]1CCN(C(=O)c2ccc(NCc3cncc4ccsc34)nc2)C1 [Example 5.1, N-Methyl-N-[(3S)-1-{6-[({thieno[3,2-c]pyridin-7-yl}methyl)amino]pyridine-3-carbonyl}pyrrolidin-3-yl]acetamide]	1.17	0.04
CC(=O)N(C)[C@H]1CCN(C(=O)c2ccc(N[C@@H](C)c3cccc4c3cnn4C)nc2)C1 [Example 5.2]	1.68	0.07
CC(=O)N(C)[C@H]1CCN(C(=O)c2ccc(NCc3cccc4[nH]ncc34)nc2)C1 [Example 5.3]	11.2	0.09
CC(=O)N(C)[C@H]1CCN(C(=O)c2ccc(NCc3c(Cl)nc4sccn34)nc2)C1 [Example 5.4]	1.59	0.12
CC(=O)N(C)[C@H]1CCN(C(=O)c2ccc(NCc3cccc4[nH]ccc34)nc2)C1 [Example 5.6]	2.1	0.13
CC(=O)N(C)[C@H]1CCN(C(=O)c2ccc(NCc3ccc4nc[nH]c4c3)nc2)C1 [Example 5.7]	4.49	0.14
CC(=O)N(C)[C@H]1CCN(C(=O)c2ccc(N[C@@H](C)c3ccc4[nH]ncc4c3)nc2)C1 [Example 5.8]	1.71	0.16
CC(=O)N(C)[C@H]1CCN(C(=O)c2ccc(N[C@@H](C)c3cnc4[nH]ccc4c3)nc2)C1 [Example 5.9]	10.3	0.18
CC(=O)N(C)[C@H]1CCN(C(=O)c2ccc(NC(C)c3cccc4[nH]ccc34)nc2)C1 (stereo partly shown) [Example 5.10]	1.41	0.18
CC(=O)N(C)[C@H]1CCN(C(=O)c2ccc(NCc3cnc4ccccn34)nc2)C1 [Example 5.12]	3.91	0.23
CC(=O)N(C)[C@H]1CCN(C(=O)c2ccc(NCc3ccnc4[nH]ccc34)nc2)C1 [Example 5.13]	1.71	0.28
CC(=O)N(C)[C@H]1CCN(C(=O)c2ccc(NCc3n[nH]c4ccccc34)nc2)C1 [Example 5.14]	1.69	0.36
CC(=O)N(C)[C@H]1CCN(C(=O)c2ccc(N[C@@H](C)c3nc4cc(Cl)ccc4[nH]3)nc2)C1 [Example 5.15]	7.52	0.6
CC(=O)N(C)[C@H]1CCN(C(=O)c2ccc(NCc3c[nH]c4ccccc34)nc2)C1 [Example 5.16]	4.39	0.62

Next, values leading:

IC50 (Pantetheinase (vanin)) [nM]	IC50 [1] [nM]	Structure (SMILES)
3.69	0.75	CC(=O)N(C)[C@H]1CCN(C(=O)c2ccc(NCc3ncn4ccccc34)nc2)C1 [Example 5.19]
3.4	0.79	CC(=O)N(C)[C@H]1CCN(C(=O)c2ccc(NCc3noc4c3CCCC4)nc2)C1 [Example 5.21]
3.35	0.82	CC(=O)N(C)[C@H]1CCN(C(=O)c2ccc(NCc3ccc4[nH]ncc4c3)nc2)C1 [Example 5.22]
4.1	1.43	CC(=O)N(C)[C@H]1CCN(C(=O)c2ccc(N[C@@H](C)c3nc4ccccc4[nH]3)nc2)C1 [Example 5.23]
3.88	1.23	CC(=O)N(C)[C@H]1CCN(C(=O)c2ccc(NCc3cccc4ncccc34)nc2)C1 [Example 5.24]
4.86	0.22	CC(=O)N(C)[C@H]1CCN(C(=O)c2ccc(N[C@@H](C)c3ccc4nc[nH]c4c3)nc2)C1 [Example 5.36]
1.37	0.36	CC(=O)N(C)[C@H]1CCN(C(=O)c2ccc(N[C@@H](C)c3ccc4nn(C)cc4c3)nc2)C1 [Example 5.38]
26.2	0.29	CN(C(=O)C1CC1)[C@H]1CCN(C(=O)c2ccc(NCc3csc4ccccc34)nc2)C1 [Example 5.39]
1.06	0.54	CC(=O)N(C)[C@H]1CCN(C(=O)c2ccc(NCc3c(C)ccc4nc(C)[nH]c34)nc2)C1 [Example 5.40]
7.66	0.33	CC(=O)N(C)[C@H]1CCN(C(=O)c2ccc(N[C@@H](C)c3cccc4[nH]ncc34)nc2)C1 [Example 7.1, N-[(3S)-1-(6-{[(1S)-1-(1H-Indazol-4-yl)ethyl]amino}pyridine-3-carbonyl)pyrrolidin-3-yl]-N-methylacetamide]
